# Test results: PMC10041525, “New Dual Inhibitors of Bacterial Topoisomerases with Broad-Spectrum Antibacterial Activity and In Vivo Efficacy against Vancomycin-Intermediate Staphylococcus aureus” (Journal of Medicinal Chemistry, 2023)
# Like-named read-outs stand apart in the source and are kept apart here.
# What was measured:
# [1] = system: N. gonorrhoeae ATCC 49226; test: IHMA QC MIC; assay type: cell-based; conditions: Neisseria gonorrhoeae, ATCC49226; QC strain N. gonorrhoeae ATCC 49226, test date 2021-11-18; read-out: MIC
# Description: Supplement jm2c01905_si_004.xlsx, sheet "QC" | column: MIC [µg/mL]
# [2] = system: 100 A. baumannii strains (50 MDR, 50 non-MDR); test: MIC broth microdilution at IHMA Europe, panel of 100 strains; assay type: cell-based; conditions: for MIC / MIC50 / MIC90: Acinetobacter baumannii; for MIC50: read-out: MIC 50; for MIC90: read-out: MIC 90
structure (smiles),measurement,setting,value
O=C(O)c1cn(C2CC2)c2cc(N3CCNCC3)c(F)cc2c1=O [ciprofloxacin],MIC,[1],0.004 µg/mL
same,MIC,"[2]; A. baumannii IHMA 1769393, Lithuania 2018, Non-MDR, read-out: MIC",0.5 µg/mL
same,MIC,"[2]; A. baumannii IHMA 1769782, Israel 2018, MDR, read-out: MIC",> 16 µg/mL
same,MIC,"[2]; A. baumannii IHMA 1769910, Israel 2018, Non-MDR, read-out: MIC",1 µg/mL
same,MIC,"[2]; A. baumannii IHMA 1790317, Czech Republic 2018, Non-MDR, read-out: MIC",≤ 0.06 µg/mL
same,MIC,"[2]; A. baumannii IHMA 1790916, Romania 2018, Non-MDR, read-out: MIC",≤ 0.06 µg/mL
same,MIC,"[2]; A. baumannii IHMA 1791877, Israel 2018, MDR, read-out: MIC",> 16 µg/mL
same,MIC,"[2]; A. baumannii IHMA 1792961, Jordan 2018, MDR, read-out: MIC",> 16 µg/mL
same,MIC,"[2]; A. baumannii IHMA 1795669, Tunisia 2018, Non-MDR, read-out: MIC",≤ 0.06 µg/mL
same,MIC,"[2]; A. baumannii IHMA 1814276, Lebanon 2018, MDR, read-out: MIC",> 16 µg/mL
same,MIC,"[2]; A. baumannii IHMA 1815198, Kuwait 2018, MDR, read-out: MIC",> 16 µg/mL
same,MIC,"[2]; A. baumannii IHMA 1815856, Israel 2018, MDR, read-out: MIC",> 16 µg/mL
same,MIC,"[2]; A. baumannii IHMA 1830924, United Kingdom 2018, Non-MDR, read-out: MIC",0.5 µg/mL
same,MIC,"[2]; A. baumannii IHMA 1849819, Kuwait 2018, MDR, read-out: MIC",> 16 µg/mL
same,MIC,"[2]; A. baumannii IHMA 1849829, Kuwait 2018, Non-MDR, read-out: MIC",≤ 0.06 µg/mL
same,MIC,"[2]; A. baumannii IHMA 1926285, Qatar 2018, Non-MDR, read-out: MIC",≤ 0.06 µg/mL
same,MIC,"[2]; A. baumannii IHMA 1926288, Qatar 2018, MDR, read-out: MIC",> 16 µg/mL
same,MIC,"[2]; A. baumannii IHMA 1963732, Turkey 2019, MDR, read-out: MIC",> 16 µg/mL
same,MIC,"[2]; A. baumannii IHMA 1967860, Spain 2019, Non-MDR, read-out: MIC",1 µg/mL
same,MIC,"[2]; A. baumannii IHMA 1971673, Latvia 2019, MDR, read-out: MIC",> 16 µg/mL
same,MIC,"[2]; A. baumannii IHMA 1983151, Greece 2019, MDR, read-out: MIC",> 16 µg/mL
same,MIC,"[2]; A. baumannii IHMA 1984665, Lithuania 2019, MDR, read-out: MIC",> 16 µg/mL
same,MIC,"[2]; A. baumannii IHMA 1986738, Turkey 2019, MDR, read-out: MIC",> 16 µg/mL
same,MIC,"[2]; A. baumannii IHMA 1987162, Croatia 2019, MDR, read-out: MIC",> 16 µg/mL
same,MIC,"[2]; A. baumannii IHMA 1993615, Turkey 2019, MDR, read-out: MIC",> 16 µg/mL
same,MIC,"[2]; A. baumannii IHMA 1994284, Italy 2019, MDR, read-out: MIC",> 16 µg/mL
same,MIC,"[2]; A. baumannii IHMA 2003279, Turkey 2019, MDR, read-out: MIC",> 16 µg/mL
same,MIC,"[2]; A. baumannii IHMA 2014931, South Africa 2019, Non-MDR, read-out: MIC",2 µg/mL
same,MIC,"[2]; A. baumannii IHMA 2020360, Croatia 2019, MDR, read-out: MIC",> 16 µg/mL
same,MIC,"[2]; A. baumannii IHMA 2031511, Greece 2019, Non-MDR, read-out: MIC",≤ 0.06 µg/mL
same,MIC,"[2]; A. baumannii IHMA 2031524, Greece 2019, MDR, read-out: MIC",> 16 µg/mL
same,MIC,"[2]; A. baumannii IHMA 2035089, Serbia 2019, MDR, read-out: MIC",> 16 µg/mL
same,MIC,"[2]; A. baumannii IHMA 2038976, Hungary 2019, MDR, read-out: MIC",> 16 µg/mL
same,MIC,"[2]; A. baumannii IHMA 2051503, Serbia 2019, MDR, read-out: MIC",> 16 µg/mL
same,MIC,"[2]; A. baumannii IHMA 2065587, France 2019, Non-MDR, read-out: MIC",≤ 0.06 µg/mL
same,MIC,"[2]; A. baumannii IHMA 2129256, Qatar 2019, Non-MDR, read-out: MIC",≤ 0.06 µg/mL
same,MIC,"[2]; A. baumannii IHMA 2154584, Israel 2020, MDR, read-out: MIC",> 16 µg/mL
same,MIC,"[2]; A. baumannii IHMA 2155340, Kenya 2020, MDR, read-out: MIC",> 16 µg/mL
same,MIC,"[2]; A. baumannii IHMA 2156634, Turkey 2020, MDR, read-out: MIC",> 16 µg/mL
same,MIC,"[2]; A. baumannii IHMA 2156709, Turkey 2020, MDR, read-out: MIC",> 16 µg/mL
same,MIC,"[2]; A. baumannii IHMA 2177232, Lithuania 2020, MDR, read-out: MIC",> 16 µg/mL
same,MIC,"[2]; A. baumannii IHMA 2177489, Lithuania 2020, MDR, read-out: MIC",> 16 µg/mL
same,MIC,"[2]; A. baumannii IHMA 2178574, Ukraine 2020, Non-MDR, read-out: MIC",≤ 0.06 µg/mL
same,MIC,"[2]; A. baumannii IHMA 2180142, Malaysia 2020, MDR, read-out: MIC",> 16 µg/mL
same,MIC,"[2]; A. baumannii IHMA 2181370, Morocco 2020, MDR, read-out: MIC",> 16 µg/mL
same,MIC,"[2]; A. baumannii IHMA 2183729, Argentina 2020, MDR, read-out: MIC",> 16 µg/mL
same,MIC,"[2]; A. baumannii IHMA 2193375, Venezuela 2020, MDR, read-out: MIC",> 16 µg/mL
same,MIC,"[2]; A. baumannii IHMA 2193485, Venezuela 2020, Non-MDR, read-out: MIC",≤ 0.06 µg/mL
same,MIC,"[2]; A. baumannii IHMA 2193607, Venezuela 2020, MDR, read-out: MIC",> 16 µg/mL
same,MIC,"[2]; A. baumannii IHMA 2195460, Italy 2020, MDR, read-out: MIC",> 16 µg/mL
same,MIC,"[2]; A. baumannii IHMA 2196914, South Africa 2020, MDR, read-out: MIC",> 16 µg/mL
same,MIC,"[2]; A. baumannii IHMA 2196959, South Africa 2020, MDR, read-out: MIC",> 16 µg/mL
same,MIC,"[2]; A. baumannii IHMA 2203763, Spain 2020, MDR, read-out: MIC",> 16 µg/mL
same,MIC,"[2]; A. baumannii IHMA 2205144, Korea, South 2020, MDR, read-out: MIC",> 16 µg/mL
same,MIC,"[2]; A. baumannii IHMA 2206459, Taiwan 2020, MDR, read-out: MIC",> 16 µg/mL
same,MIC,"[2]; A. baumannii IHMA 2206507, Taiwan 2020, Non-MDR, read-out: MIC",≤ 0.06 µg/mL
same,MIC,"[2]; A. baumannii IHMA 2216586, Taiwan 2020, MDR, read-out: MIC",> 16 µg/mL
same,MIC,"[2]; A. baumannii IHMA 2224017, Panama 2020, MDR, read-out: MIC",> 16 µg/mL
same,MIC,"[2]; A. baumannii IHMA 2231797, Greece 2020, MDR, read-out: MIC",> 16 µg/mL
same,MIC,"[2]; A. baumannii IHMA 2233099, Guatemala 2020, MDR, read-out: MIC",> 16 µg/mL
same,MIC,"[2]; A. baumannii IHMA 2233430, Kazakhstan 2020, MDR, read-out: MIC",> 16 µg/mL
same,MIC,"[2]; A. baumannii IHMA 2238964, Thailand 2020, MDR, read-out: MIC",> 16 µg/mL
same,MIC,"[2]; A. baumannii IHMA 2261047, Belgium 2020, MDR, read-out: MIC",> 16 µg/mL
same,MIC,"[2]; A. baumannii IHMA 2274234, South Africa 2020, MDR, read-out: MIC",> 16 µg/mL
same,MIC,"[2]; A. baumannii IHMA 2274364, South Africa 2020, MDR, read-out: MIC",> 16 µg/mL
same,MIC,"[2]; A. baumannii IHMA 2275751, Jordan 2020, MDR, read-out: MIC",> 16 µg/mL
same,MIC,"[2]; A. baumannii IHMA 2316205, United States 2020, MDR, read-out: MIC",> 16 µg/mL
same,MIC,"[2]; MDR n = 50, read-out: MAX (maximum MIC; all strains inhibited)",> 16 µg/mL
same,MIC50,[2]; MDR n = 50,> 16 µg/mL
same,MIC90,[2]; MDR n = 50,> 16 µg/mL
same,MIC,"[2]; MDR n = 50, read-out: MIN (minimum MIC)",> 16 µg/mL
same,MIC,"[2]; all isolates n = 100, read-out: MAX (maximum MIC; all strains inhibited)",> 16 µg/mL
same,MIC50,[2]; all isolates n = 100,2 µg/mL
same,MIC90,[2]; all isolates n = 100,> 16 µg/mL
same,MIC,"[2]; all isolates n = 100, read-out: MIN (minimum MIC)",≤ 0.06 µg/mL
same,MIC,"[2]; non-MDR n = 50, read-out: MAX (maximum MIC)",2 µg/mL
same,MIC,"[2]; non-MDR n = 50, read-out: MIN (minimum MIC)",≤ 0.06 µg/mL
same,Percentage I,[2]; MDR n = 50,0%
same,Percentage R,[2]; MDR n = 50,100%
same,Percentage S,[2]; MDR n = 50,0%
same,Percentage I,[2]; non-MDR n = 50,2%
same,Percentage R,[2]; non-MDR n = 50,0%
same,Percentage S,[2]; non-MDR n = 50,98%
